Laboratory results as given in patent US9493446B2, “Orexin receptor antagonists which are [ortho bi-(hetero-)aryl]-[2-(meta bi-(hetero-)aryl)-pyrrolidin-1-yl]-methanone derivatives” (Actelion Pharmaceuticals Ltd, priority 2012, dated 2016).
Like-named read-outs stand apart in the source and are kept apart here.

Key:
orexin-1 = orexin-1 (Homo sapiens (Human), UniProt O43613); experiment: Intracellular calcium measurement (FLIPR), CHO cells expressing human orexin-1 receptor, 3 nM orexin-A; format: cell-based; details: read-out: IC50 OX1
Method in brief: (§1)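 CHO transfectants were dye-loaded (fluo-4 AM, probenecid) and exposed to antagonist for 120 min ahead of agonist.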

human orexin-2 receptor = human orexin-2 receptor (Homo sapiens (Human), UniProt O43614); experiment: Intracellular calcium measurement (FLIPR), CHO cells expressing human orexin-2 receptor, 3 nM orexin-A; format: cell-based; details: read-out: IC50 OX2
Method in brief: as §1

[1] = CHO cells expressing human orexin-1 receptor, FLIPR, 3 nM orexin-A, geometric mean if determined several times
[2] = CHO cells expressing human orexin-2 receptor, FLIPR, 3 nM orexin-A, geometric mean if determined several times

orexin-1, sequence (O43613 whole entry): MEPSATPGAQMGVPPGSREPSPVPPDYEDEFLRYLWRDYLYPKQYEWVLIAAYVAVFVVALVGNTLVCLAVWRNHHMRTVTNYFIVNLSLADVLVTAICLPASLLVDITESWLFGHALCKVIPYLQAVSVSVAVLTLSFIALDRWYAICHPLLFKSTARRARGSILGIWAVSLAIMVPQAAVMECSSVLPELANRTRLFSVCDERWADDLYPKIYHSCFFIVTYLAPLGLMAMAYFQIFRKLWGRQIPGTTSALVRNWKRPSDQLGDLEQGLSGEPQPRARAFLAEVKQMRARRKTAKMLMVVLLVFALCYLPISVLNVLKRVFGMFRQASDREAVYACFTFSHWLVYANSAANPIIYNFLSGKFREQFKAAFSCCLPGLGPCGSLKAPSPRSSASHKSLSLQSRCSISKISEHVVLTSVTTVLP
human orexin-2 receptor, sequence (O43614 whole entry): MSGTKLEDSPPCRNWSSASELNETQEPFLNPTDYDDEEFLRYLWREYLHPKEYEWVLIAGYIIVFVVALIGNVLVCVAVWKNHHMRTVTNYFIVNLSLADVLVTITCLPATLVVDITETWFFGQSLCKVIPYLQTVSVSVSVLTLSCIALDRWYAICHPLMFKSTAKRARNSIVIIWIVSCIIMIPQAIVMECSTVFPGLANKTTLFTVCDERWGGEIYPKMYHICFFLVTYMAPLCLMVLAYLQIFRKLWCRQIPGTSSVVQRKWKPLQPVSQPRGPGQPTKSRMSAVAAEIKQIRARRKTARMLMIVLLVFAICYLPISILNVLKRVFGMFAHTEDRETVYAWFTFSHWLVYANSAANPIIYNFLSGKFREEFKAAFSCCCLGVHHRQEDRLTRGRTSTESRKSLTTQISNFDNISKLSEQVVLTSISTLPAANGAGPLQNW

IC50 (orexin-1; [1])	IC50 (human orexin-2 receptor; [2])	Compound	IC50 (orexin-1)	IC50 (human orexin-2 receptor)
15 nM	2 nM	Cc1cc(C(=O)N2CCC[C@H]2c2noc(-c3cccc(F)c3C)n2)c(-n2nccn2)cc1C [compound 339, (4,5-Dimethyl-2-[1,2,3]triazol-2-yl-phenyl)-{(S)-2-[5-(3-fluoro-2-methyl-phenyl)-[1,2,4]oxadiazol-3-yl]-pyrrolidin-1-yl}-methanone]	–	–
10 nM	16 nM	Cc1ccc(-n2nccn2)c(C(=O)N2CCC[C@H]2c2nc(-c3ccccc3OC(F)(F)F)co2)c1 [Example 460, (5-Methyl-2-[1,2,3]triazol-2-yl-phenyl)-{(S)-2-[4-(2-trifluoromethoxy-phenyl)-oxazol-2-yl]-pyrrolidin-1-yl}-methanone]	–	–
31 nM	64 nM	Cc1ccc(-c2ccccc2)c(C(=O)N2CCC[C@@]2(C)c2nnc(-c3ccccc3OC(F)(F)F)[nH]2)c1 [compound 549, (4-Methyl-biphenyl-2-yl)-{(S)-2-methyl-2-[5-(2-trifluoromethoxy-phenyl)-4H-[1,2,4]triazol-3-yl]-pyrrolidin-1-yl}-methanone]	–	–
2360 nM	3130 nM	Cc1cccc(-c2ocnc2C(=O)N2CCC[C@H]2c2nnc(-c3ccccc3OC(F)(F)F)[nH]2)c1 [compound 486, (5-m-Tolyl-oxazol-4-yl)-{(S)-2-[5-(2-trifluoromethoxy-phenyl)-4H-[1,2,4]triazol-3-yl]-pyrrolidin-1-yl}-methanone]	–	–
151 nM	8 nM	COc1ccc(-n2nccn2)c(C(=O)N2CCC[C@H]2c2nc(-c3cccc(F)c3C)no2)c1 [compound 249, {(S)-2-[3-(3-Fluoro-2-methyl-phenyl)-[1,2,4]oxadiazol-5-yl]-pyrrolidin-1-yl}-(5-methoxy-2-[1,2,3]triazol-2-yl-phenyl)-methanone]	–	–
16 nM	4 nM	CCOc1ncccc1-c1nc([C@@H]2CCCN2C(=O)c2cc(OC)c(C)cc2-n2nccn2)no1 [compound 311, {(S)-2-[5-(2-Ethoxy-pyridin-3-yl)-[1,2,4]oxadiazol-3-yl]-pyrrolidin-1-yl}-(5-methoxy-4-methyl-2-[1,2,3]triazol-2-yl-phenyl)-methanone]	–	–
4 nM	9 nM	Cc1ccc(-n2nccn2)c(C(=O)N2CCC[C@H]2c2nc(-c3cccc4cc[nH]c34)no2)c1 [compound 46, {(S)-2-[3-(1H-Indol-7-yl)-[1,2,4]oxadiazol-5-yl]-pyrrolidin-1-yl}-(5-methyl-2-[1,2,3]triazol-2-yl-phenyl)-methanone]	–	–
73 nM	42 nM	CCOc1ncccc1-c1noc([C@@H]2CCCN2C(=O)c2cc(OC)c(C)cc2-c2ncccn2)n1 [compound 287, {(S)-2-[3-(2-Ethoxy-pyridin-3-yl)-[1,2,4]oxadiazol-5-yl]-pyrrolidin-1-yl}-(5-methoxy-4-methyl-2-pyrimidin-2-yl-phenyl)-methanone]	–	–
901 nM	40 nM	Cc1ccc(-n2nccn2)c(C(=O)N2CCC[C@H]2c2nc(-c3c(C)cccc3F)no2)c1 [compound 76, {(S)-2-[3-(2-Fluoro-6-methyl-phenyl)-[1,2,4]oxadiazol-5-yl]-pyrrolidin-1-yl}-(5-methyl-2-[1,2,3]triazol-2-yl-phenyl)-methanone]	–	–
1810 nM	565 nM	COc1c(F)cccc1-c1noc([C@@H]2CCCN2C(=O)c2cc(F)cc(C)c2-n2nccn2)n1 [compound 207, {(S)-2-[3-(3-Fluoro-2-methoxy-phenyl)-[1,2,4]oxadiazol-5-yl]-pyrrolidin-1-yl}-(5-fluoro-3-methyl-2-[1,2,3]triazol-2-yl-phenyl)-methanone]	–	–
1570 nM	261 nM	Cc1ccc(-n2nccn2)c(C(=O)N2CCC[C@H]2c2nc(-c3ccnc4[nH]ccc34)no2)c1 [compound 75, (5-Methyl-2-[1,2,3]triazol-2-yl-phenyl)-{(S)-2-[3-(1H-pyrrolo[2,3-b]pyridin-4-yl)-[1,2,4]oxadiazol-5-yl]-pyrrolidin-1-yl}-methanone]	–	–
90 nM	56 nM	COc1cc(C(=O)N2CCC[C@H]2c2nc(-c3ccccc3OC(F)(F)F)no2)c(-c2ncccn2)cc1C [compound 285, (5-Methoxy-4-methyl-2-pyrimidin-2-yl-phenyl)-{(S)-2-[3-(2-trifluoromethoxy-phenyl)-[1,2,4]oxadiazol-5-yl]-pyrrolidin-1-yl}-methanone]	–	–
182 nM	95 nM	CCOc1ncccc1-c1nnc([C@@H]2CCCN2C(=O)c2cc(C)ccc2-n2nccn2)o1 [Example 450, {(S)-2-[5-(2-Ethoxy-pyridin-3-yl)-[1,3,4]oxadiazol-2-yl]-pyrrolidin-1-yl}-(5-methyl-2-[1,2,3]triazol-2-yl-phenyl)-methanone]	–	–
163 nM	30 nM	COc1ccc(C)c(-c2nc([C@@H]3CCCN3C(=O)c3ccc(C)cc3-n3nccn3)no2)c1 [compound 413, {(S)-2-[5-(5-Methoxy-2-methyl-phenyl)-[1,2,4]oxadiazol-3-yl]-pyrrolidin-1-yl}-(4-methyl-2-[1,2,3]triazol-2-yl-phenyl)-methanone]	–	–
73 nM	6 nM	Cc1ccc(-n2nccn2)c(C(=O)N2CCC[C@H]2c2noc(-c3cc(C)ccc3C)n2)c1 [compound 390, {(S)-2-[5-(2,5-Dimethyl-phenyl)-[1,2,4]oxadiazol-3-yl]-pyrrolidin-1-yl}-(5-methyl-2-[1,2,3]triazol-2-yl-phenyl)-methanone]	–	–
> 5640 nM	1060 nM	Cc1ccc(-n2nccn2)c(C(=O)N2CCC[C@H]2c2nc(-c3c(C)cncc3C)no2)c1 [compound 37, {(S)-2-[3-(3,5-Dimethyl-pyridin-4-yl)-[1,2,4]oxadiazol-5-yl]-pyrrolidin-1-yl}-(5-methyl-2-[1,2,3]triazol-2-yl-phenyl)-methanone]	–	–
84 nM	35 nM	COc1cc(C(=O)N2CCC[C@H]2c2nnc(-c3ccccc3OC)[nH]2)c(-n2nccn2)cc1C [compound 468, (5-Methoxy-4-methyl-2-[1,2,3]triazol-2-yl-phenyl)-{(S)-2-[5-(2-methoxy-phenyl)-4H-[1,2,4]triazol-3-yl]-pyrrolidin-1-yl}-methanone]	–	–
781 nM	460 nM	O=C(c1[nH]cnc1-c1ccccc1)N1CCC[C@H]1c1nc(-c2ccccc2OC(F)(F)F)no1 [compound 153, (5-Phenyl-3H-imidazol-4-yl)-{(S)-2-[3-(2-trifluoromethoxy-phenyl)-[1,2,4]oxadiazol-5-yl]-pyrrolidin-1-yl}-methanone]	–	–
76 nM	27 nM	CCOc1ncccc1-c1noc([C@@H]2CCCN2C(=O)c2cccc(F)c2-c2ccn[nH]2)n1 [compound 216, {(S)-2-[3-(2-Ethoxy-pyridin-3-yl)-[1,2,4]oxadiazol-5-yl]-pyrrolidin-1-yl}-[3-fluoro-2-(2H-pyrazol-3-yl)-phenyl]-methanone]	–	–
1300 nM	1230 nM	Cc1cccc(-c2scnc2C(=O)N2CCC[C@H]2c2nnc(-c3ccccc3OC(F)(F)F)[nH]2)c1 [compound 485, (5-m-Tolyl-thiazol-4-yl)-{(S)-2-[5-(2-trifluoromethoxy-phenyl)-4H-[1,2,4]triazol-3-yl]-pyrrolidin-1-yl}-methanone]	–	–
65 nM	4 nM	Cc1ccc(-n2nccn2)c(C(=O)N2CCC[C@H]2c2noc(-c3cccc(F)c3C)n2)c1 [compound 335, {(S)-2-[5-(3-Fluoro-2-methyl-phenyl)-[1,2,4]oxadiazol-3-yl]-pyrrolidin-1-yl}-(5-methyl-2-[1,2,3]triazol-2-yl-phenyl)-methanone]	–	–
1 nM	0.5 nM	CCOc1ncccc1-c1nc([C@@H]2CCCN2C(=O)c2cc(C)c(C)cc2-n2nccn2)no1 [compound 331, (4,5-Dimethyl-2-[1,2,3]triazol-2-yl-phenyl)-{(S)-2-[5-(2-ethoxy-pyridin-3-yl)-[1,2,4]oxadiazol-3-yl]-pyrrolidin-1-yl}-methanone]	–	–
136 nM	14 nM	COc1c(Cl)cccc1-c1nnc([C@@H]2CCCN2C(=O)c2cc(C)ccc2-n2nccn2)[nH]1 [compound 488, {(S)-2-[5-(3-Chloro-2-methoxy-phenyl)-4H-[1,2,4]triazol-3-yl]-pyrrolidin-1-yl}-(5-methyl-2-[1,2,3]triazol-2-yl-phenyl)-methanone]	–	–

Compound	IC50 (orexin-1; [1])	IC50 (human orexin-2 receptor; [2])	IC50 (orexin-1)	IC50 (human orexin-2 receptor)
[3-(2-Chloro-phenyl)-5-methyl-isoxazol-4-yl]-{(S)-2-[3-(2-trifluoromethoxy-phenyl)-[1,2,4]oxadiazol-5-yl]-pyrrolidin-1-yl}-methanone [Reference compound 10, reference compound]	1040 nM	150 nM	–	–
COc1cc(C(=O)N2CCC[C@H]2c2noc(-c3cccc(Cl)c3C)n2)c(-n2nccn2)cc1F [compound 322]	158 nM	6 nM	–	–
Cc1nc(C(=O)N2CCC[C@H]2c2nc(-c3cccc(Cl)c3C)no2)c(-c2ccccc2F)s1 [compound 124]	145 nM	77 nM	–	–
Cc1c(Cl)cccc1-c1noc([C@@H]2CCCN2C(=O)c2cccc(F)c2-n2cccn2)n1 [compound 113]	1200 nM	146 nM	–	–
CCOc1ncccc1-c1nc([C@@H]2CCCN2C(=O)c2ccc(C)cc2-n2nccn2)no1 [compound 345]	33 nM	11 nM	–	–
O=C(c1ncsc1-c1cccc(Cl)c1)N1CCC[C@H]1c1nc(-c2ccccc2OC(F)(F)F)no1 [compound 142]	123 nM	80 nM	–	–
Cc1c(Cl)cccc1-c1noc([C@@H]2CCCN2C(=O)c2cc(F)c(F)cc2-n2nccn2)n1 [compound 110]	1690 nM	159 nM	–	–
CCOc1c(F)cccc1-c1noc([C@@H]2CCCN2C(=O)c2cc(OC)c(Cl)cc2-n2nccn2)n1 [compound 283]	–	7 nM	34 nM	–
COc1cc(C)cc(-c2nc([C@@H]3CCCN3C(=O)c3cc(OC)c(Cl)cc3-n3nccn3)no2)c1 [compound 352]	19 nM	–	–	4 nM
